Patent US20260085053A1, “BENZOFURAN DERIVATIVES AS SIK INHIBITORS AND THE USE THEREOF” (BEONE MEDICINES I GMBH, priority 2023, published 2026)

Legend:
[1] = molecular target: T1, SIK1 kinase (aa1-303, Thermo Fisher) (Homo sapiens, UniProt P57059); assay: Biochemical activities determination for SIK1 protein (TR-FRET); conditions: 110 uM ATP, 0.5 μM STK1 substrate
T1 construct: SIK1 kinase (aa1-303, Thermo Fisher); purchased Thermo Fisher
How it was run: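 TR-FRET kinase assay with SIK1 (aa1-303), 110 uM ATP, 0.5 μM STK1 substrate and 0-10 μM compound in Tris pH 7.5 with MgCl2, EGTA, DTT, Triton X-100. Enzyme preincubated with compound 60 min, reaction 180 min at room temperature; 665/620 nm ratio after overnight detection; IC50 from four-parameter logistic fit.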

[2] = molecular target: T2, SIK3 kinase (aa59-365, Thermo Fisher) (Homo sapiens, UniProt Q9Y2K2); assay: Biochemical activities determination for SIK3 protein (TR-FRET); conditions: 125 uM ATP, 0.5 μM STK1 substrate
T2 construct: SIK3 kinase (aa59-365, Thermo Fisher); purchased Thermo Fisher
T2 sequence (Q9Y2K2 59-365): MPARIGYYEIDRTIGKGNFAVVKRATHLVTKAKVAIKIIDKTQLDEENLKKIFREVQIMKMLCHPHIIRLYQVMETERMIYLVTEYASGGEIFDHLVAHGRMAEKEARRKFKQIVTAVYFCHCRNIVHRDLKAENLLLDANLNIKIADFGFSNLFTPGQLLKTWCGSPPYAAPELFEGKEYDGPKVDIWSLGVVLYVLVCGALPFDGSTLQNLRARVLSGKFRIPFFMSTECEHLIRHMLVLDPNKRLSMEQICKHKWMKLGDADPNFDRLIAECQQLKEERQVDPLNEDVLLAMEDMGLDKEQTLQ
How it was run: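 SIK3 (aa59-365) was preincubated with compound (0-10 μM) for 60 min at room temperature in Tris buffer pH 7.5. The reaction was then started with 125 uM ATP and 0.5 μM STK1 substrate and run 180 min at room temperature. Phospho-substrate was detected by HTRF (665/620 nm ratio), and IC50 came from a four-parameter logistic fit.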

[3] = molecular target: T3, SIK2 kinase (full length, Thermo Fisher) (Homo sapiens, UniProt Q9H0K1); assay: Biochemical activities determination for SIK2 protein (TR-FRET); conditions: 80 uM ATP, 0.5 μM substrate
T3 construct: SIK2 kinase (full length, Thermo Fisher); purchased Thermo Fisher
T3 sequence (Q9H0K1 whole entry): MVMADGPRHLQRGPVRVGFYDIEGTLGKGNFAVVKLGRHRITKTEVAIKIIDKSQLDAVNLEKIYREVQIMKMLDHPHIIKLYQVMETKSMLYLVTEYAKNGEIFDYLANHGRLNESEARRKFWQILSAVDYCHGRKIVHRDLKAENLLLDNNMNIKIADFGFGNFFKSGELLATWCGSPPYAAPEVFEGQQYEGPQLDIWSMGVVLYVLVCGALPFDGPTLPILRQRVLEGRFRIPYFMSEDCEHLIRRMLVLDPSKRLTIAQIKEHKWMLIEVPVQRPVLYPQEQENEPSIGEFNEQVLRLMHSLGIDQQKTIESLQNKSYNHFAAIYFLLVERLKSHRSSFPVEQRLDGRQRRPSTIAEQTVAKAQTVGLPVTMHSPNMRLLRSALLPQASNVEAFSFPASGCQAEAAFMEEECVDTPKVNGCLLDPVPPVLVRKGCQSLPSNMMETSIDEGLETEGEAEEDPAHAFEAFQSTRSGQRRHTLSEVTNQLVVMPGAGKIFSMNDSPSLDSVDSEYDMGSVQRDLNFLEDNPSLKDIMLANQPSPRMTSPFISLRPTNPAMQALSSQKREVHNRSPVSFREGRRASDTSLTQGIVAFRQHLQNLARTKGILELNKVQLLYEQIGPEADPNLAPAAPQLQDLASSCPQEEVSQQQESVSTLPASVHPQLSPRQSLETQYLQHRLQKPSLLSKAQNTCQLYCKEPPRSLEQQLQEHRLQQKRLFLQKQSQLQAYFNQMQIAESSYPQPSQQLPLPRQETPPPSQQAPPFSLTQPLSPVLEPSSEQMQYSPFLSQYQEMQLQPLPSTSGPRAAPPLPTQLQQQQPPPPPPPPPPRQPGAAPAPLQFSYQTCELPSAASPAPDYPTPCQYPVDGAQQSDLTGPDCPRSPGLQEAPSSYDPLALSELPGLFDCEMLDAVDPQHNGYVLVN
How it was run: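 Full-length SIK2 preincubated 60 min with 0–10 μM compound, then reacted 180 min at room temperature with 80 uM ATP and 0.5 μM biotinylated substrate (pH 7.5 Tris/MgCl2 buffer). Phosphorylation detected by TR-FRET (665/620 nm ratio, cryptate antibody/streptavidin-XL665) after overnight incubation; IC50 from four-parameter logistic fit.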

T1 sequence (P57059 1-303): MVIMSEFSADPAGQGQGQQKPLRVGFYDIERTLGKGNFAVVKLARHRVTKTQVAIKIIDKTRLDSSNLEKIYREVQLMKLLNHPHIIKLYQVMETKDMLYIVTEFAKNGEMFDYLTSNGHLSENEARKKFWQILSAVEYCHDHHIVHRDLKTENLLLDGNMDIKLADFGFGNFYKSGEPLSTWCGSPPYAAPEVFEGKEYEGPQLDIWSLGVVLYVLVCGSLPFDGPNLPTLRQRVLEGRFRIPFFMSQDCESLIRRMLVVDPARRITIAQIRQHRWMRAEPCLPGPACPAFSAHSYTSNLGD

| SMILES | IC50 [1] [nM] | IC50 [2] [nM] | IC50 [3] [nM] |
| --- | --- | --- | --- |
| O=C(NC1CC1)c1c(OCCO)cc(-c2coc3cc(OCCN4CCCC4)ccc23)cc1OC(F)F [Compound 103, N-cyclopropyl-2-(difluoromethoxy)-6-(2-hydroxyethoxy)-4-(6-(2-(pyrrolidin-1-yl)ethoxy)benzofuran-3-yl)benzamide] | 9500 | 410 | 114 |
| O=C(NC1CC1)c1c(NCCO)cc(-c2coc3cc(OCCN4CCCC4)ccc23)cc1OC(F)F [Compound 104, N-cyclopropyl-2-(difluoromethoxy)-6-((2-hydroxyethyl)amino)-4-(6-(2-(pyrrolidin-1-yl)ethoxy)benzofuran-3-yl)benzamide] | 4580 | 211 | 52 |
| O=C(NC1CC1)c1c(F)cc(-c2coc3cc(OCCN4CCCC4)ccc23)cc1OC(F)F [Compound 105, N-cyclopropyl-2-(difluoromethoxy)-6-fluoro-4-(6-(2-(pyrrolidin-1-yl)ethoxy)benzofuran-3-yl)benzamide] | > 10000 | 1770 | 398 |
| CN1CC(Oc2cc(-c3coc4cc(OCCN5CCCC5)ccc34)cc(OC(F)F)c2C(=O)NC2CC2)C1 [Compound 106, N-cyclopropyl-2-(difluoromethoxy)-6-((1-methylazetidin-3-yl)oxy)-4-(6-(2-(pyrrolidin-1-yl)ethoxy)benzofuran-3-yl)benzamide] | > 10000 | > 10000 | 2960 |
| CN1CCC[C@@H]1COc1cc(-c2coc3cc(OCCN4CCCC4)ccc23)cc(OC(F)F)c1C(=O)NC1CC1 [Compound 107, (R)—N-cyclopropyl-2-(difluoromethoxy)-6-((1-methylpyrrolidin-2-yl)methoxy)-4-(6-(2-(pyrrolidin-1-yl)ethoxy)benzofuran-3-yl)benzamide] | > 10000 | > 10000 | 5610 |
| CC(C)(O)COc1cc(-c2coc3cc(OCCN4CCCC4)ccc23)cc(OC(F)F)c1C(=O)NC1CC1 [Compound 108, N-cyclopropyl-2-(difluoromethoxy)-6-(2-hydroxy-2-methylpropoxy)-4-(6-(2-(pyrrolidin-1-yl)ethoxy)benzofuran-3-yl)benzamide] | > 10000 | > 10000 | 2780 |
| NC1CC(Oc2cc(-c3coc4cc(OCCN5CCCC5)ccc34)cc(OC(F)F)c2C(=O)NC2CC2)C1 (stereo not drawn) [Compound 109, 2-(3-aminocyclobutoxy)-N-cyclopropyl-6-(difluoromethoxy)-4-(6-(2-(pyrrolidin-1-yl)ethoxy)benzofuran-3-yl)benzamide] | > 10000 | 2520 | 329 |
| CN1CC[C@@H](Oc2cc(-c3coc4cc(OCCN5CCCC5)ccc34)cc(OC(F)F)c2C(=O)NC2CC2)C1 [Compound 110, (R)—N-cyclopropyl-2-(difluoromethoxy)-6-((1-methylpyrrolidin-3-yl)oxy)-4-(6-(2-(pyrrolidin-1-yl)ethoxy)benzofuran-3-yl)benzamide] | > 10000 | > 10000 | 3850 |
| CN1CC[C@H](Oc2cc(-c3coc4cc(OCCN5CCCC5)ccc34)cc(OC(F)F)c2C(=O)NC2CC2)C1 [Compound 111, (S)—N-cyclopropyl-2-(difluoromethoxy)-6-((1-methylpyrrolidin-3-yl)oxy)-4-(6-(2-(pyrrolidin-1-yl)ethoxy)benzofuran-3-yl)benzamide] | > 10000 | 5700 | 1190 |
| CN1CC[C@@H](COc2cc(-c3coc4cc(OCCN5CCCC5)ccc34)cc(OC(F)F)c2C(=O)NC2CC2)C1 [Compound 112, (R)—N-cyclopropyl-2-(difluoromethoxy)-6-((1-methylpyrrolidin-3-yl)methoxy)-4-(6-(2-(pyrrolidin-1-yl)ethoxy)benzofuran-3-yl)benzamide] | > 10000 | 7620 | 1300 |
| CN1CCC[C@H]1COc1cc(-c2coc3cc(OCCN4CCCC4)ccc23)cc(OC(F)F)c1C(=O)NC1CC1 [Compound 113, (S)—N-cyclopropyl-2-(difluoromethoxy)-6-((1-methylpyrrolidin-2-yl)methoxy)-4-(6-(2-(pyrrolidin-1-yl)ethoxy)benzofuran-3-yl)benzamide] | > 10000 | > 10000 | 7320 |
| CN1CC[C@@H]1COc1cc(-c2coc3cc(OCCN4CCCC4)ccc23)cc(OC(F)F)c1C(=O)NC1CC1 [Compound 114, (R)—N-cyclopropyl-2-(difluoromethoxy)-6-((1-methylazetidin-2-yl)methoxy)-4-(6-(2-(pyrrolidin-1-yl)ethoxy)benzofuran-3-yl)benzamide] | > 10000 | 5490 | 745 |
| CN1CC(COc2cc(-c3coc4cc(OCCN5CCCC5)ccc34)cc(OC(F)F)c2C(=O)NC2CC2)C1 [Compound 115, N-cyclopropyl-2-(difluoromethoxy)-6-((1-methylazetidin-3-yl)methoxy)-4-(6-(2-(pyrrolidin-1-yl)ethoxy)benzofuran-3-yl)benzamide] | > 10000 | 4240 | 582 |
| CN1CC[C@H](COc2cc(-c3coc4cc(OCCN5CCCC5)ccc34)cc(OC(F)F)c2C(=O)NC2CC2)C1 [Compound 116, (S)—N-cyclopropyl-2-(difluoromethoxy)-6-((1-methylpyrrolidin-3-yl)methoxy)-4-(6-(2-(pyrrolidin-1-yl)ethoxy)benzofuran-3-yl)benzamide] | > 10000 | > 10000 | 1120 |
| CN1CC[C@H]1COc1cc(-c2coc3cc(OCCN4CCCC4)ccc23)cc(OC(F)F)c1C(=O)NC1CC1 [Compound 117, (S)—N-cyclopropyl-2-(difluoromethoxy)-6-((1-methylazetidin-2-yl)methoxy)-4-(6-(2-(pyrrolidin-1-yl)ethoxy)benzofuran-3-yl)benzamide] | > 10000 | > 10000 | 2940 |
| CN(C)CCOc1cc(-c2coc3cc(OCCN4CCCC4)ccc23)cc(OC(F)F)c1C(=O)NC1CC1 [Compound 118, N-cyclopropyl-2-(difluoromethoxy)-6-(2-(dimethylamino)ethoxy)-4-(6-(2-(pyrrolidin-1-yl)ethoxy)benzofuran-3-yl)benzamide] | > 10000 | 6310 | 781 |
| CCOc1cc(-c2coc3cc(OCCN4CCCC4)ccc23)cc(OC(F)F)c1C(=O)NC1CC1 [Compound 119, N-cyclopropyl-2-(difluoromethoxy)-6-ethoxy-4-(6-(2-(pyrrolidin-1-yl)ethoxy)benzofuran-3-yl)benzamide] | 7180 | 452 | 136 |
| CC(C)Oc1cc(-c2coc3cc(OCCN4CCCC4)ccc23)cc(OC(F)F)c1C(=O)NC1CC1 [Compound 120, N-cyclopropyl-2-(difluoromethoxy)-6-isopropoxy-4-(6-(2-(pyrrolidin-1-yl)ethoxy)benzofuran-3-yl)benzamide] | > 10000 | 2540 | 619 |
| O=C(NC1CC1)c1c(OC(F)F)cc(-c2coc3cc(OCCN4CCCC4)ccc23)cc1OC1CC1 [Compound 121, 2-cyclopropoxy-N-cyclopropyl-6-(difluoromethoxy)-4-(6-(2-(pyrrolidin-1-yl)ethoxy)benzofuran-3-yl)benzamide] | > 10000 | 2120 | 438 |
